Test results reported in US10995260B2, “Methods for determining an optimal surfactant structure for oil recovery” (University of Wyoming, priority 2017, dated 2021).

Test: Dynamic interfacial tension of surfactant solution/crude oil (rising/captive bubble tensiometry)
Assay type: physicochemical
Conditions: time for IFT to reach half of its value between γo and γm; 0.1% wt surfactant, municipal water/crude oil, ambient conditions
Description: Interfacial tension tests were carried out in accordance with the invention. Dynamic IFT and contact angles were measured using rising/captive bubble tensiometry enhanced by image acquisition with a high-resolution Charged Coupled Device (CCD) digital camera and apochromatically-corrected lens. The apparatus includes a Hastelloy measurement cell, a Hastelloy dual-cylinder pulse-free Quizix pump (to provide constant flow rate and pressure), a temperature control module, a data acquisition computer, an oven, and an in-line density meter (Anton Paar DMA HPM) to measure the density of fluids at actual experimental conditions. The system tolerates reservoir conditions with pressures and temperatures up to 10,000 psi and 150° C., respectively (V. Mirchi, S. Saraji, L. Goual, M. Piri, Dynamic interfacial tension and wettability of shale in the presence of surfactants at reservoir conditions, Fuel, vol. 148, pp. 127-138, 2015).
For IFT measurements, after establishing ambient (e.g., 14.7 psi and 20° C.) or reservoir conditions (e.g., 6840 psi and 120° C.) in a cell saturated with brine, a bubble of crude oil was created inside the measurement cell through a needle (0.3-1.6 mm outside diameter). Images of oil bubbles were captured at 5-second intervals to measure dynamic interfacial tension. IFT values were obtained by fitting the drop profile to the Young-Laplace equation using Axisymetric Drop Shape Analysis (ADSA) software.
A series of dynamic IFT measurements with municipal water and crude oil were performed at ambient conditions to examine the surface activity of selected surfactants. FIGS. 5A-5F present dynamic IFT results of a homologous series of nonionic surfactant solutions with 0.1% wt concentration, which is above the critical micelle concentration (CMC) of all the surfactants studied. The size of the hydrophobic and hydrophilic parts of the surfactants were altered independently and their impact on oil/brine interfacial tension was investigated.
In addition, the dynamic IFT of certain surfactants was measured at reservoir conditions. In particular, the impact of elevated temperatures and pressures on the performance of these surfactants was evaluated. IFT values of crude oil and surfactant solutions were measured at 6840 psi and 120° C.
As shown by Equation 1, three typical regions of dynamic IFT reduction exist: (I) induction region, (II) rapid fall region, and (III) mesoequilibrium region (X. Y. Hua, M. J. Rosen, Dynamic surface tension of aqueous surfactant solutions: I. Basic parameters, Journal of Colloid and Interface Science, vol. 124, no. 2, pp. 652-659, 1988). log(γ0−γt)−log(γt−γm)=n log t−n log t* (1)
In Equation 1, γt is the IFT of surfactant solution at time t, γm is the mesoequilibrium interfacial tension (when γt is almost stabilized), γo is the IFT in the absence of surfactant, and t* is the required time for IFT to reach half of its value between γo and γm. The value of n is a constant number related to the structure of surfactants and correlates to the difference between surfactants' adsorption and desorption. Increasing nonionic surfactants' polyoxyethylene chain length reduces the value of n (T. Gao, M. J. Rosen, Dynamic surface tension of aqueous surfactant solutions: 7. physical significance of dynamic parameters and the induction period, Journal of Colloid and Interface Science, vol. 172, no. 1, pp. 242-248, 1995).

Substance | t* [min]
CH3(CH2)8-10(OC2H4)2.5OH [CH2 8-10, EO 2.5] | 16.5
CH3(CH2)8-10(OC2H4)6-6.5OH [CH2 8-10, EO 6] | 12.3
CH3(CH2)8-10(OC2H4)8.3OH [CH2 8-10, EO 8] | 11.6
CH3(CH2)11-14(OC2H4)3OH [CH2 11-14, EO 3] | 23

Next, values leading:

t* [min] | Substance
7.83 | CH3(CH2)11-13(OC2H4)8.2OH [CH2 11-14, EO 8.2]
9.3 | CH3(CH2)11-14(OC2H4)7.25OH [CH2 11-14, EO 7.25]
